According to patent US9839642B2, “Beta-tetrazolyl-propionic acids as metallo-beta-lactamase inhibitors” (priority 2014, dated 2017):
Like-named read-outs stand apart in the source and are kept apart here.

Tests used:
IMP-1 = IMP-1 (Serratia marcescens, UniProt P52699); test: Enzyme activity: determination of IC50, fluorescence assay with CCF2-FA substrate; type: biochemical; settings: CCF2-FA 1.25 μM, 2 hours at 25° C., read-out: IMP1 IC50
Method in brief: (§1)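 In pH 7 phosphate buffer (100 mM) with 10 μM ZnSO4 and 0.005% Tween-20, CCF2-FA substrate (1.25 μM final) was hydrolysed for 2 h at 25 °C by NDM-1, IMP-1 or VIM-1 at 1, 2 or 30 pM in the presence of inhibitor at 20–0.00063 μM. Emission 460 nm/excitation 405 nm; 4-parameter curve fit gave IC50.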

NDM-1 = NDM-1 (Klebsiella pneumoniae, UniProt C7C422); test: as above; type: biochemical; settings: CCF2-FA 1.25 μM, 2 hours at 25° C., read-out: NDM1 IC50
NDM-1, sequence (C7C422 29-270, looked up, species assumed): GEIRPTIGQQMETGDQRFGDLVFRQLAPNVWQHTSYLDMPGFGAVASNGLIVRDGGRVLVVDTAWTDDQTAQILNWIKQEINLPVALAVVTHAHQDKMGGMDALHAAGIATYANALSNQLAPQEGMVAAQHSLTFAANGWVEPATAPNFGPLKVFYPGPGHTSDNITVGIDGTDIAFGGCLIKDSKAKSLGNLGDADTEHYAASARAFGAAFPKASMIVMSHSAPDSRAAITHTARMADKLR
Method in brief: as §1

VIM-1 = VIM-1 (Pseudomonas aeruginosa, UniProt A0A0F7KYQ8); test: as above; type: biochemical; settings: CCF2-FA 1.25 μM, 2 hours at 25° C., read-out: VIM1 IC50
Method in brief: as §1

[1] = tested on: Escherichia coli expressing NDM-1 (CLB30016); test: Antibiotic potentiation activity: synergistic concentration (MITC95) with imipenem, growth by OD600; type: cell-based
Method in brief: (§2)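 MITC95 = lowest inhibitor concentration giving 95% growth inhibition, read by absorbance after 22–24 h at 35° C. Compound range 200 μM to 0.195 μM, imipenem fixed at 1 or 4 μg/ml, bacteria in 1.1×CAMHB from saline suspension diluted 1:100.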

[2] = tested on: Klebsiella pneumoniae expressing VIM-1 (IHMA599644); test: as above; type: cell-based
Method in brief: as §2

[3] = tested on: Serratia marcescens expressing IMP-1 (CL5741); test: as above; type: cell-based
Method in brief: as §2

[4] = 95% inhibition of bacterial growth, strain CLB30016
[5] = 95% inhibition of bacterial growth, strain IHMA599644
[6] = 95% inhibition of bacterial growth, strain CL5741
[7] = E. coli CLB30016 (NDM-1), 95% inhibition of growth
[8] = K. pneumoniae IHMA599644 (VIM-1), 95% inhibition of growth
[9] = S. marcescens CL5741 (IMP-1), 95% inhibition of growth

IMP-1, sequence (P52699 19-246, looked up, species assumed): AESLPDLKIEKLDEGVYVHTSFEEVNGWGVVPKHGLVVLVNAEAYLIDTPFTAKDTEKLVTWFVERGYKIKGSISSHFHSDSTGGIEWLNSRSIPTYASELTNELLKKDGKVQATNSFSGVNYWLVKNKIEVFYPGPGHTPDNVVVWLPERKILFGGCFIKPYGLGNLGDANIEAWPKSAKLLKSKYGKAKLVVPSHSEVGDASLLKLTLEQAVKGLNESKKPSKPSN

| SMILES | IC50 (IMP-1; enzyme 2 pM) [nM] | IC50 (NDM-1; enzyme 1 pM) [nM] | IC50 (VIM-1; enzyme 30 pM) [nM] | NDM1 EC30016 MITC95 [1, 4] [µM] | VIM1 KP599644 MITC95 [2, 5] [µM] | IMP1 SM5741 MITC95 [3, 6] [µM] | IC50 (IMP-1; IMP-1 enzyme 2 pM) [nM] | IC50 (NDM-1; NDM-1 enzyme 1 pM) [nM] | IC50 (VIM-1; VIM-1 enzyme 30 pM) [nM] | NDM1 EC30016 MITC95 [1, 7] [µM] | VIM1 KP599644 MITC95 [2, 8] [µM] | IMP1 SM5741 MITC95 [3, 9] [µM] |
| --- | --- | --- | --- | --- | --- | --- | --- | --- | --- | --- | --- | --- |
| CCC[C@H](C(=O)O)[C@H](Cc1cccc(C#N)c1)c1nn[nH]n1 [Example 41, (2S)-2-[(1S)-2-(3-cyanophenyl)-1-(1H-tetrazol-5-yl)ethyl]pentanoic acid] | 590 | 60 | 0.87 | 18.8 | 18.8 | 37.5 |  |  |  |  |  |  |
| CCC[C@H](C(=O)O)[C@H](Cc1cccc(-c2cccc(C3CCCNC3)c2)c1)c1nn[nH]n1 (stereo partly drawn) [Example 345, (2S)-2-[(1S)-2-(3′-piperidin-3-ylbiphenyl-3-yl)-1-(2H-tetrazol-5-yl)ethyl]pentanoic acid] |  |  |  |  |  |  | 270 | 39 | 1.7 | 25 | 18.8 | 6.2 |
| CCC[C@H](C(=O)O)[C@H](Cc1ccc(-c2cnc(NC(C)=O)nc2)nc1)c1nn[nH]n1 [Example 160, (2S)-2-[(1S)-2-{6-[2-(acetylamino)pyrimidin-5-yl]pyridin-3-yl}-1-(1H-tetrazol-5-yl)ethyl]pentanoic acid] | 1600 | 50 | 5.7 | 38 | 75 | 50 |  |  |  |  |  |  |
| CC(C)C[C@H](C(=O)O)[C@H](Cc1ccc(C2CCNCC2)cc1)c1nnn[nH]1 [Example 102, (S)-4-methyl-2-((S)-2-(4-(piperidin-4-yl)phenyl)-1-(1H-tetrazol-5-yl)ethyl)pentanoic acid] | 72 | 40 | 5.3 | 12.5 | 37 | 2.3 |  |  |  |  |  |  |
| CCC[C@H](C(=O)O)[C@H](Cc1ccc(C(=O)NC2CC2)cc1)c1nnn[nH]1 [Example 281, (2S)-2-[(1S)-2-[4-(cyclopropylcarbamoyl)phenyl]-1-(1H-tetrazol-5-yl)ethyl]pentanoic acid] |  |  |  |  |  |  | 5300 | 770 | 86 | 100 | 200 | 200 |
| CCC[C@H](C(=O)[O-])[C@H](Cc1ccc(C2=CC[N+](C)(C)CC2)cc1)c1nnn[nH]1 [Example 295, (S)-2-((S)-2-(4-(1,1-dimethyl-1,2,3,6-tetrahydropyridin-1-ium-4-yl)phenyl)-1-(1H-tetrazol-5-yl)ethyl)pentanoate] |  |  |  |  |  |  | 1100 | 440 | 1600 | 12.5 | 25 | 12.5 |
| CCC[C@H](C(=O)O)[C@H](Cc1cnc(N2CCOCC2)nc1)c1nnn[nH]1 [Example 287, (S)-2-((S)-2-(2-morpholinopyrimidin-5-yl)-1-(1H-tetrazol-5-yl)ethyl)pentanoic acid] |  |  |  |  |  |  | 9200 | 100 | 5 | 25 | 50 | 75 |
| CC(C)C[C@H](C(=O)O)[C@H](Cc1cc(F)cc(Br)c1)c1nnn[nH]1 [Example 24, (2S)-2-[(1S)-2-(3-bromo-5-fluorophenyl)-1-(1H-tetrazol-5-yl)ethyl]-4-methylpentanoic acid] | 230 | 18 | 0.6 | 9.4 | 12.5 | 4.7 |  |  |  |  |  |  |
| CC(C)C[C@H](C(=O)O)[C@H](Cc1ccc(Oc2cccc(CN)c2)nc1)c1nn[nH]n1 [Example 400, (2S)-2-[(1S)-2-{6-[3-(aminomethyl)phenoxy]pyridin-3-yl}-1-(2H-tetrazol-5-yl)ethyl]-4-methylpentanoic acid] |  |  |  |  |  |  | 750 | 340 | 42 | 12.5 | 50 | 25 |
